Laboratory results taken from US10816552B2 (The Governing Council of the University of Toronto, priority 2014, dated 2020).

How the values were obtained:
Jurkat cells = experiment: Metabolic toxicity assay (WST-1) in Jurkat cells; format: cell-based; conditions: Jurkat cells, 24 hour incubation, WST-1
Experimental: FIGS. 7A, B and C show a) and b) the cell proliferation rate of HCT116 cells as a function of time in the presence of various concentrations of the exemplary compound, Telox-2 (confluency analysis); and c) the metabolic toxicity of the exemplary compound, Telox-2, in Jurkat cells as measured by reduction of WST-1. Cells were incubated with Telox-2 for 24 hours prior to a 30 minute exposure to WST-1.
A 96 well clear fluorometer plate was loaded with 200 μL of Jurkat cells at a culture density of 1×10^6 cells per mL. To each well was added an appropriate amount of a stock solution of Telox/Telox2 in sterile DMSO to reach a desired concentration of Telox/Telox2 (1-1000 micromole). The concentration of DMSO was 1% in all wells. Cells were allowed to incubate for 24 h at 37° C. under normal atmosphere, after which 20 μL of a commercially available solution of WST-1 in PBS (Roche Diagnostics, product #05015944001) was added to each well (gentle pipetting evenly distributed the reagent throughout the well). Cells were allowed to incubate for a further 0.5 h at 37° C. under normal atmosphere, followed by subsequent measurement of the absorbance of each well at 450 nm using a TECAN Safire 2 plate reader. Data was background corrected vs. wells that contained cell growth media (without cells), an appropriate concentration of Telox2, a final concentration of DMSO=1%, and WST-1. Background correction wells were incubated in the same manner as described for cell-positive wells.
To investigate the organotellurium compounds of study as potential probe moieties for MC, the metabolic toxicity of the compounds was evaluated. Organotellurium compounds are often described as toxic, with aryl telluroethers showing cellular toxicity below 100 μM across a range of cell lines under different assay conditions.^9-11,38,39 The toxicity of compounds 8-11 was investigated in a commonly used Jurkat cell line after a 24 hour incubation using the metabolic probe WST-1 (Roche Diagnostics, Laval, Quebec) as per manufacturer's instructions. As compounds 8, 9 and 10 are expected to show degradation over the time frame of the toxicity assay, based on the NMR stability studies, these experiments show the relative toxicity of the compounds and their resulting degradation products (Table 2). […] The LD50 values of the exemplary organotellurium compounds of the present application provide promise for their use as activity based MC probes since the general MC experiment can be achieved at concentrations of ˜100 μM.^5

[1] = UV-Vis stability of Telox-2 in aqueous buffer; format: physicochemical; conditions: 200 μM, 0.01% DMSO in phosphate-buffered saline
Experimental: Concentration of Telox-2=200 μM (0.01% DMSO in phosphate-buffered saline). The small spectrum identifies the unique absorptions of the tellurophene and nitroimidazole functionalities.
An orthogonal stability assay using UV-Vis spectroscopy was performed to corroborate the NMR stability findings (FIG. 6). In this assay, UV-Vis spectra of Telox-2 were recorded at a fixed concentration in aqueous buffer over a period of 3 days. Loss of either heterocycle, tellurophene or nitroimidazole, as a result of degradation would be expected to cause a decrease in absorbance at 282 and/or 325 nm respectively.

Solubility observations = format: physicochemical
[2] = Empirical log P by UV-Vis assay; format: physicochemical; conditions: aqueous buffer; UV-Vis assay conditions
[3] = tested on: NADPH:cytochrome P450 oxidoreductase (POR); format: cell-based; conditions: mutant HCT116, 10 μM, 3 hours
Experimental: FIGS. 10A-C show a) the mass cytometry histograms of wild-type HCT116 cells incubated with 10 μM of the exemplary compound, Telox-2, for 3 hours in atmosphere containing either 21% O2, 1% O2, 0.2% O2, or <0.02% O2); b) the mass cytometry histograms of mutant HCT116 cells overexpressing POR incubated with 10 μM Telox-2 for 3 hours in atmosphere containing either 21% O2, 1% O2, 0.2% O2 or <0.02% O2; and c) the mass cytometry histograms of mutant HCT116 cells unable to express POR incubated with 10 μM Telox-2 for 3 hours in atmosphere containing either 21% O2, 1% O2, 0.2% O2, or <0.02% O2.
To confirm the reductive metabolism of Telox-2 it investigated using mutant HCT116 cell lines that either overexpressed NADPH:cytochrome P450 oxidoreductase (POR) or had this enzyme knocked out (FIG. 10 part b).

[4] = 1H NMR stability of Telox-2 in D2O (0.01% dDMSO); format: physicochemical
From the text: To investigate the stability of Telox-2 compared to Telox ^1H NMR spectra of Telox-2 were collected over a period of 1 week under biologically-relevant conditions (0.01% dDMSO in D2O).

HCT116 cells = experiment: Competitive labelling with pimonidazole (mass cytometry); format: cell-based; conditions: HCT116, Telox-2 10 μM, near-anoxic
Experimental: Concentration Telox-2=10 μM. The absolute ^130Te signal was measured using mass cytometry.
HCT 116 cells (see sections i and ii) were incubated in media containing Telox or Telox2 (100 μM, added as a neat solution in sterile DMSO; final [DMSO]=0.1%) for 3 hours under atmosphere containing an appropriate concentration of O2. Following incubation, the media was removed, cells were washed with sterile PBS, and then separated from the incubation plate via trypsinization (37° C., 10 min) and gentle scraping. The cell suspension was pelleted and resuspended in PBS containing β-ME (1.0 mL, 100 mM). Cells were pelleted, resuspended in PBS (900 μL, no β-ME), and fixed with formaldehyde (100 μL, 37% solution) for 25 minutes. Following fixation, cells were pelleted, resuspended in PBS containing β-ME (1.0 mL, 100 mM), and pelleted once again. Cells were then resuspended in PBS ([…], no β-ME) and incubated with either the Ir-containing nucleic acid intercalator (hypoxic cells) or the Rh containing nucleic acid intercalator (normoxic cells) (10 μL, 100 μM solution in sterile PBS) for 20 minutes. Cells were then pelleted and resuspended in PBS (1.0 mL, no β-ME) twice. Cell pellets were then resuspended in PBS containing ^151/153EU beads (1/10 dilution of CyTOF® calibration beads, DVS Sciences, 1.0-2.5 mL depending on pellet size). […]

With `O=[N+]([O-])c1nccn1CCc1ccc[te]1` [Telox-2, 2-nitro-1-(2-(tellurophen-2-yl)ethyl)-1H-imidazole] the “LD50 (metabolic toxicity)” value (Jurkat cells) was roughly 270 µM, the “change in absorbance at 282 and/or 325 nm over 3 days” value [1] was “No change in absorbance” and the “solubility, in words” value (Solubility observations) was “unusually high water solubility”. The logP [2] was 1.3, the “labelling in POR-knockout cell line compared to wild type” value [3] was “nearly identical to that in the wild type” and the “labelling in cell line overexpressing POR compared to wild type” value [3] was “greatly enhanced labelling”. The “degradation by 1H NMR over 1 week” value ([4]; 0.01% dDMSO in D2O, 1 week, 200 μM) was “no observable degradation”, the “aggregate or micelle formation in aqueous solution (1H NMR peak broadening)” value ([4]; high concentrations (2 mM)) was “does not form aggregates or micelles” and the “labelling under competitive conditions with pimonidazole” value (HCT116 cells) was “reduced in a (pimonidazole) dose-dependent manner”.
